Reference: patent US6525045B2, “Positive allosteric AMPA receptor modulators” (Boehringer Ingelheim Pharma KG, priority 2000, dated 2003)

System: AMPA receptors
Experiment: Electrophysiological measurement of intensification of the agonist-induced current on cells expressing functional AMPA receptors
Assay type: cell-based
Set-up: key: + good; ++ very good activity
Conditions: concentrations between 0.3 μmol and 300 μmol
Protocol: Particular mention should be made of those applications in which the positive modulation of AMPA receptors plays a part. The effect of the compounds according to the invention as AMPA receptor modulators was measured electrophysiologically on cells which express functional AMPA receptors. Investigations were carried out to see whether the test substances have a positive allosteric influence on the agonist-induced current.
The test was carried out at concentrations of between 0.3 μmol and 300 μmol.

| Molecule | Effectiveness: Intensification of the agonist-induced current |
| --- | --- |
| 6-chloro-4-methyl-4,5-dihydro-1.3-dithia-4-aza-acenaphthylene 3.3-dioxide [Example 5] | + |
| CN1Cc2cccc3scc(c23)S1(=O)=O [Example 1, 4-methyl-4,5-dihydro-1,3-dithia-4-aza-acenaphthylene 3,3-dioxide] | ++ |
| CCN1Cc2cccc3scc(c23)S1(=O)=O [Example 2, 4-ethyl-4.5-dihydro-1,3-dithia-4-aza-acenaphthylene 3,3-dioxide] | + |
| CN1Cc2ccc(Cl)c3scc(c23)S1(=O)=O [Example 3, 8-chloro-4-methyl-4,5-dihydro-1,3-dithia-4-aza-acenaphthylene 3,3-dioxide] | + |
| CN1Cc2c(F)ccc3scc(c23)S1(=O)=O [Example 4, 6-fluoro-4-methyl-4,5-dihydro-1,3-dithia-4-aza-acenaphthylene 3,3-dioxide] | ++ |

System: not given
Experiment: not given
Conditions: not given

| melting point [°C] | Molecule |
| --- | --- |
| 203 | CN1Cc2c(Br)ccc3scc(c23)S1(=O)=O [Example 11, 6-bromo-4-methyl-4,5-dihydro-1,3-dithia-4-aza-acenaphthylene-3,3-dioxide] |
| 238 | CN1Cc2c(C#N)ccc3scc(c23)S1(=O)=O [Example 16, 4-methyl-3,3-dioxo-4,5-dihydro-3H-1,3-dithia-4-aza-acenaphthylene-6-carbonitrile] |
